Measured values reported in ChEMBL document CHEMBL5380790 (J Med Chem, 2023).
Values after ≈ are worked out from the molar mass of the structure shown. Active and inactive are the calls of the source. The rule behind the calls is not given here.

Key:
[1] = molecular target: Mast/stem cell growth factor receptor Kit (Homo sapiens, UniProt P10721, DELTA560/V654A); type: cell-based, GIST-430/654
[2] = Metabolic stability in human liver microsomes assessed as intrinsic clearance in presence of NADPH by UPLC analysis; type: ADME, Microsome; settings: read-out: CLH
[3] = Metabolic stability in mouse liver microsomes assessed as intrinsic clearance in presence of NADPH by UPLC analysis; type: ADME, Microsome; settings: read-out: CLH
[4] = Kinetic solubility of compound in PBS buffer at pH 7.4 and measured after 2 hrs by HPLC-UV analysis; type: physicochemical; settings: read-out: Kinetic_solubility
[5] = Metabolic stability in human hepatocytes assessed as intrinsic clearance measured per million cells; type: ADME, cell-based, Hepatocyte; settings: read-out: CLH
[6] = Apparent passive permeability of compound in human Caco-2 cells at 1 uM and measured after 2 hrs by LC-MS/MS analysis; type: ADME, cell-based
[7] = Efflux ratio of apparent permeability from basolateral to apical side over apical to basolateral side in human Caco-2 cells at 1 uM and measured after 2 hrs by LC-MS/MS analysis; type: ADME, cell-based
[8] = molecular target: hERG (KCNH2) potassium channel (Homo sapiens, UniProt Q12809); experiment: Inhibition of human ERG potassium channel transfected in HEK293 cells at holding potential -80 mV at 10 uM and measured for 5 mins by whole cell patch clamp assay; type: toxicity, cell-based; settings: HEK293 cells transfected with hERG
[9] = Octanol-water distribution coefficient, logD of the compound at pH 7.4; type: physicochemical
[10] = Dissociation constant, pKa of the compound; type: physicochemical
[11] = Solubility of compound in FaSSIF at pH 6.5; type: physicochemical
[12] = molecular target: Receptor-type tyrosine-protein kinase FLT3 (Homo sapiens) (UniProt P36888); experiment: Inhibition of FLT3 (unknown origin) at 1 uM using 33P-ATP as substrate incubated for 120 mins by radiometric kinase assay
[13] = Solubility of compound in FeSSIF at pH 5.5; type: physicochemical
[14] = Solubility of compound in simulated gastric fluid at pH 1.2; type: physicochemical
[15] = molecular target: Mast/stem cell growth factor receptor Kit (Homo sapiens, UniProt P10721, V654A); experiment: Inhibition of recombinant human KIT V654A mutant using polyGT and ATP as substrate preincubated for 20 mins followed by substrate addition and measured after 240 mins by FRET assay
Mast/stem cell growth factor receptor Kit (Homo sapiens, UniProt P10721, V654A), sequence (P10721 26-976 V654A limits assumed): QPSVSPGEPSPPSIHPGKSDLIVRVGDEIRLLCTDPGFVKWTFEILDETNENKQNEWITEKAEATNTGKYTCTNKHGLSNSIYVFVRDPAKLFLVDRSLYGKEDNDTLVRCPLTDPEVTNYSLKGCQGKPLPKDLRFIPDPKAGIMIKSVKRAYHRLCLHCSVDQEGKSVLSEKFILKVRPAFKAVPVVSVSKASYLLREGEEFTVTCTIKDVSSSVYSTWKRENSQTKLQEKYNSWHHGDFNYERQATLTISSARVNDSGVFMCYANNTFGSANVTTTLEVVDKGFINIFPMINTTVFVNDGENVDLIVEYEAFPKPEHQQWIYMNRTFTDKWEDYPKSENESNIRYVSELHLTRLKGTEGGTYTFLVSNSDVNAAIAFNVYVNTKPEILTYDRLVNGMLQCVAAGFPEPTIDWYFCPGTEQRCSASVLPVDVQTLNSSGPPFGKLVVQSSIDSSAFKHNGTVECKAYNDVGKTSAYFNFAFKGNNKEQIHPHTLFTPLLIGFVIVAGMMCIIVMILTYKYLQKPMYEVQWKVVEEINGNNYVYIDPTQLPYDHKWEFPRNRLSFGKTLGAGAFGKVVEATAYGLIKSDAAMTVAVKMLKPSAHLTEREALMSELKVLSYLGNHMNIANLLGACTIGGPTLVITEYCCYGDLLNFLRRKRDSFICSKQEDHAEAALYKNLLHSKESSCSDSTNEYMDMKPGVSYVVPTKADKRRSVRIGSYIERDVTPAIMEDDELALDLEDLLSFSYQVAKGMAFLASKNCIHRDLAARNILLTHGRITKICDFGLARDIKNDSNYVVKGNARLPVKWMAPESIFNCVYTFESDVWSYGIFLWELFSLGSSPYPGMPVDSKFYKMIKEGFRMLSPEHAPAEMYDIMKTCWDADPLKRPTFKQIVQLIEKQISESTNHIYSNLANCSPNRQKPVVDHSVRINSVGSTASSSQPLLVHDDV

Mast/stem cell growth factor receptor Kit (Homo sapiens, UniProt P10721, DELTA560/V654A), sequence (P10721 whole entry, looked up, stated change not applied): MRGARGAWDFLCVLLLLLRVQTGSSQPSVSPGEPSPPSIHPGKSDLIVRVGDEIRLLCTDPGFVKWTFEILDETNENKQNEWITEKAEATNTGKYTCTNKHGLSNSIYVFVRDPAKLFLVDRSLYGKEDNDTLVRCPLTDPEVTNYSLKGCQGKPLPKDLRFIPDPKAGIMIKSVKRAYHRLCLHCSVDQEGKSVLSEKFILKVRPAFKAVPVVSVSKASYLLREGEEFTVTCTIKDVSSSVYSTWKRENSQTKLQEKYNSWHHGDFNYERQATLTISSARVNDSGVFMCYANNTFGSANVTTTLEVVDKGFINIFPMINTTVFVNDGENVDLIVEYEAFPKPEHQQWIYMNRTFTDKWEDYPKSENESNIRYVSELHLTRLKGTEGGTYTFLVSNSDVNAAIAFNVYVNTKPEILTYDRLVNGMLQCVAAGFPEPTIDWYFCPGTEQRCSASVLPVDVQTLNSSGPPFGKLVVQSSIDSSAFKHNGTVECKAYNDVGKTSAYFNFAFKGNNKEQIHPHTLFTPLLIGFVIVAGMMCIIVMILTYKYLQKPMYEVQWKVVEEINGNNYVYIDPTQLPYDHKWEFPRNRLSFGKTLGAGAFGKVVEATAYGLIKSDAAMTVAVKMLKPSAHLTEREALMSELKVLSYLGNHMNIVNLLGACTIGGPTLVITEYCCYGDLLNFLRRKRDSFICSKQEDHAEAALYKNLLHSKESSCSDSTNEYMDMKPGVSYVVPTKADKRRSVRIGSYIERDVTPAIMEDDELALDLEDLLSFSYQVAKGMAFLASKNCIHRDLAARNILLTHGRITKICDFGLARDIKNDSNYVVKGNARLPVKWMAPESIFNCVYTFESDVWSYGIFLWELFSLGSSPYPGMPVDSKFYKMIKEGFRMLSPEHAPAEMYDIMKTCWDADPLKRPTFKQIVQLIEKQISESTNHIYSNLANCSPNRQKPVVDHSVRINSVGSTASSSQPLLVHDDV
hERG (KCNH2) potassium channel, sequence (Q12809 whole entry): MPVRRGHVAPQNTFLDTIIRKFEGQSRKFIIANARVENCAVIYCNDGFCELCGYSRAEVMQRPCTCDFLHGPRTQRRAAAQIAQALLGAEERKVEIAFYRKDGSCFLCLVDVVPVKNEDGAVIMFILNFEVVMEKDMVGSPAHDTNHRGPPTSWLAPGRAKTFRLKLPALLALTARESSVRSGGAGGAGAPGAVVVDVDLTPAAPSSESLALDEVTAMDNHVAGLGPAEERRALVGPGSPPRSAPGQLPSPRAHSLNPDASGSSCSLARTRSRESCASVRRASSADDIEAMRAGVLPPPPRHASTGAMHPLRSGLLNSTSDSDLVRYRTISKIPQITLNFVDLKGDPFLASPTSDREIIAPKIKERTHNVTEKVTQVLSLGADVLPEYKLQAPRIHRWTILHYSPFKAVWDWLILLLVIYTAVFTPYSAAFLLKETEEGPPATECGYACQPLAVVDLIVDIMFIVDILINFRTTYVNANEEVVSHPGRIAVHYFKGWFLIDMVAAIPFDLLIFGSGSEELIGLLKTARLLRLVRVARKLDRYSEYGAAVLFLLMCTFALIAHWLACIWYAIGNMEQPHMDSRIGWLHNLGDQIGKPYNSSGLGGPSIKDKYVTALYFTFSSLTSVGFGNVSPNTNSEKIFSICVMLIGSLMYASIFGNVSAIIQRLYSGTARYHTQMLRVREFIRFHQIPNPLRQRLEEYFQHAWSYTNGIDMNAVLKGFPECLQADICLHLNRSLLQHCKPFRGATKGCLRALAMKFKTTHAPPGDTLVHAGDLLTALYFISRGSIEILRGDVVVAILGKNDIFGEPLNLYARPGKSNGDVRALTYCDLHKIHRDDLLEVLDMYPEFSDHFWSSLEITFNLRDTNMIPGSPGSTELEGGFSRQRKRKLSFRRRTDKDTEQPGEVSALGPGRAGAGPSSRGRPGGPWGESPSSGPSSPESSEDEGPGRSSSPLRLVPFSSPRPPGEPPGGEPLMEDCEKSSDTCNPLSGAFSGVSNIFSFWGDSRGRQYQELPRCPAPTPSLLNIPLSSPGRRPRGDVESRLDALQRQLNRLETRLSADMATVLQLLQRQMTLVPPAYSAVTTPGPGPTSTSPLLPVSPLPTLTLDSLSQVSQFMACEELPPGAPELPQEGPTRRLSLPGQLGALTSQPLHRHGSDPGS
Receptor-type tyrosine-protein kinase FLT3 (Homo sapiens), sequence (P36888 whole entry): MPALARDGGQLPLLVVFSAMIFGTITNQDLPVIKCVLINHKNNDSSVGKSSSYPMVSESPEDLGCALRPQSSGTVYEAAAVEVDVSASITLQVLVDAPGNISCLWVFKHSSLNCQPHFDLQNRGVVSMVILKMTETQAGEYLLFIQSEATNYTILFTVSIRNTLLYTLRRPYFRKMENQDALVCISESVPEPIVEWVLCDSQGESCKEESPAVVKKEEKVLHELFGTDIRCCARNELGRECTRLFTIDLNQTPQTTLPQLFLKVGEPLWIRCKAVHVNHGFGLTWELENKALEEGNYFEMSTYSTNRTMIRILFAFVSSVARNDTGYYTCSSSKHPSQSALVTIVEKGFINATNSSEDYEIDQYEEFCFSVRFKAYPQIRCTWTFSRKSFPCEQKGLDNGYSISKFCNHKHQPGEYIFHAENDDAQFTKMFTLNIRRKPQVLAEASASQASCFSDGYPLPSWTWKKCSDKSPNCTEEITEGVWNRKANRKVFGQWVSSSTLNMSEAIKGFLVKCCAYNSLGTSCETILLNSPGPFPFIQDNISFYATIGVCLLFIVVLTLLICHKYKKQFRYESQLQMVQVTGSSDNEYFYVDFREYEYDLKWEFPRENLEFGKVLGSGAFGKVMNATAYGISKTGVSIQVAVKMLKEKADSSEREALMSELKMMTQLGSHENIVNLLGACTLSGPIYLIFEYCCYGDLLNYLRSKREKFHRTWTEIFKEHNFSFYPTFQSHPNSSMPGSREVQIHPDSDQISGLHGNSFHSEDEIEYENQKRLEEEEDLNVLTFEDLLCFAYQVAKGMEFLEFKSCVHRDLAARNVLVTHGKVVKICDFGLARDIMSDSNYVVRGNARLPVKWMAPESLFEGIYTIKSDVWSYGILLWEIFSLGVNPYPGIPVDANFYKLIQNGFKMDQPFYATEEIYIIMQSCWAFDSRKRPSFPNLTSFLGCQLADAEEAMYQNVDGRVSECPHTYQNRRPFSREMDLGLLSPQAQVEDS

| IC50 [1] | microsomal CLint [2] | microsomal CLint [3] | solubility kinetic at 2 h [4] | hepatocyte CLint [5] | Papp at 2 h, 1 µM [6] | efflux ratio at 2 h, 1 µM [7] | logD [9] | pKa [10] | solubility [11] | inhibition [12] | solubility [13] | solubility [14] | IC50 [15] | Structure (SMILES) | inhibition at 5 min, 10 µM [8] |
| --- | --- | --- | --- | --- | --- | --- | --- | --- | --- | --- | --- | --- | --- | --- | --- |
| 300 nM | > 75 µL/min/mg | > 75 µL/min/mg | 81 µM (≈ 32.4 µg/mL) | – | – | – | – | – | – | – | – | – | 13 nM | COc1ccn2c(-c3cncc(NCc4ccc(N5CCCC5)nc4)c3)cnc2c1 | – |
| 78 nM | – | – | – | 8 µL/min/1e6 cells | 9.5 ×10⁻⁶ cm/s | 0.7 | 4 | – | 4 µg/mL (≈ 9.7 µM) | – | – | – | – | COc1ccn2c(-c3cc(NCc4ccc(-c5cnn(C)n5)cc4)ncn3)cnc2c1 | – |
| 75 nM | – | – | – | 9 µL/min/1e6 cells | 21 ×10⁻⁶ cm/s | 5 | 3 | – | 13 µg/mL (≈ 29.4 µM) | – | – | – | – | Cn1cc(-c2ccc(CNc3cc(-c4cnc5cc(OCCO)ccn45)ncn3)cc2)cn1 | -23% |
| 56 nM | – | – | – | 10 µL/min/1e6 cells | 9.5 ×10⁻⁶ cm/s | 15 | 1.5 | 7.3 | 16 µg/mL (≈ 31.3 µM) | – | – | – | – | Cn1cc(-c2ccc(CNc3cc(-c4cnc5cc(OCCCNC6COC6)ccn45)ncn3)cc2)cn1 | -19% |
| 110 nM | > 75 µL/min/mg | > 75 µL/min/mg | 9 µM (≈ 4 µg/mL) | – | – | – | – | – | – | – | – | – | 12 nM | COCCOc1ccn2c(-c3cncc(NCc4ccc(N5CCCC5)nc4)c3)cnc2c1 | – |
| 55 nM | < 10 µL/min/mg | < 10 µL/min/mg | < 2 µM | – | – | – | – | – | – | – | – | – | – | COc1ccn2c(-c3cc(NCc4ccc(-c5cnn(C)c5)cc4)ncn3)cnc2c1 | – |
| 680 nM | – | – | 7 µM (≈ 2.59 µg/mL) | – | – | – | – | – | – | – | – | – | 5.6 nM | c1ccn2c(-c3nccc(NCc4ccc(N5CCCC5)cc4)n3)cnc2c1 | – |
| 61 nM | – | – | – | 4 µL/min/1e6 cells | 5.7 ×10⁻⁶ cm/s | 57 | 1.9 | 9.5 | 97 µg/mL (≈ 202 µM) | – | – | – | – | CN1CC(COc2ccn3c(-c4cc(NCc5ccc(-c6cnn(C)c6)cc5)ncn4)cnc3c2)C1 | -59% |
| – | 10 µL/min/mg | > 75 µL/min/mg | – | – | – | – | – | – | – | – | – | – | > 10000 nM | c1ccn2c(-c3nccc(NCC4CCN(C5CCCC5)CC4)n3)cnc2c1 | – |

Further lines, the molecule ahead of its results:

| Structure (SMILES) | IC50 [1] | microsomal CLint [2] | microsomal CLint [3] | solubility kinetic at 2 h [4] | hepatocyte CLint [5] | Papp at 2 h, 1 µM [6] | efflux ratio at 2 h, 1 µM [7] | logD [9] | pKa [10] | solubility [11] | inhibition [12] | solubility [13] | solubility [14] | IC50 [15] | inhibition at 5 min, 10 µM [8] |
| --- | --- | --- | --- | --- | --- | --- | --- | --- | --- | --- | --- | --- | --- | --- | --- |
| c1ccn2c(-c3cc(NCc4ccc(N5CCCC5)nc4)ncn3)cnc2c1 | 429 nM | 10 µL/min/mg | > 75 µL/min/mg | < 3 µM | – | – | – | – | – | – | – | – | – | – | – |
| Cn1cc(-c2ccc(CNc3cc(-c4cnc5cc(OCCN6CCCC6)ccn45)ncn3)cc2)cn1 | 70 nM | – | – | – | 18 µL/min/1e6 cells | 12 ×10⁻⁶ cm/s | 5.4 | 2.9 | 9.1 | – | – | – | – | – | -78% |
| Cn1cc(-c2ccc(CNc3cc(-c4cnc5cc(OCCCN6CCC(C)(F)CC6)ccn45)ncn3)cc2)cn1 | 73 nM | – | – | – | 10 µL/min/1e6 cells | 1.8 ×10⁻⁶ cm/s | 1.3 | 4.3 | 8.3 | 2 µg/mL (≈ 3.61 µM) | – | – | – | – | -4% |
| COCCOc1ccn2c(-c3cc(NCc4ccc(-c5cnn(C)c5)cc4)ncn3)cnc2c1 | 48 nM | 10 µL/min/mg | > 75 µL/min/mg | < 2 µM | 18 µL/min/1e6 cells | 12 ×10⁻⁶ cm/s | 0.9 | 3.8 | – | 2 µg/mL (≈ 4.39 µM) | Active | 13 µg/mL (≈ 28.5 µM) | 890 µg/mL (≈ 1950 µM) | – | 1% |
| CN(Cc1ccc(N2CCCC2)nc1)c1cncc(-c2cnc3ccccn23)c1 | – | – | – | 8 µM (≈ 3.08 µg/mL) | – | – | – | – | – | – | – | – | – | 240 nM | – |
| CC(Nc1cncc(-c2cnc3ccccn23)c1)c1ccc(N2CCCC2)nc1 (centres undefined) | 2600 nM | > 75 µL/min/mg | > 75 µL/min/mg | 124 µM (≈ 47.7 µg/mL) | – | – | – | – | – | – | – | – | – | 83 nM | – |
| COc1ccn2c(-c3cc(NCc4ccc(-c5ccccc5)cc4)ncn3)cnc2c1 | 160 nM | 10 µL/min/mg | < 10 µL/min/mg | < 2 µM | – | – | – | – | – | – | – | – | – | 4.6 nM | – |
| c1ccc2ncc(CNc3cncc(-c4cnc5ccccn45)c3)cc2c1 | – | 10 µL/min/mg | 10 µL/min/mg | – | – | – | – | – | – | – | – | – | – | > 10000 nM | – |
| c1ccn2c(-c3cncc(NCc4ccc(N5CCCC5)nc4)c3)cnc2c1 | 720 nM | > 75 µL/min/mg | > 75 µL/min/mg | 101 µM (≈ 37.4 µg/mL) | – | – | – | – | – | – | – | – | – | 12 nM | 90% |
| Cn1cc(-c2ccc(CNc3cc(-c4cnc5cc(OCCN6CCC(C)(C#N)CC6)ccn45)ncn3)cc2)cn1 | 93 nM | – | – | – | 16 µL/min/1e6 cells | 3.1 ×10⁻⁶ cm/s | 4.7 | 4.4 | 6.9 | 16 µg/mL (≈ 29.2 µM) | – | – | – | – | -15% |
| CN(C)CCCOc1ccn2c(-c3cc(NCc4ccc(-c5cnn(C)c5)cc4)ncn3)cnc2c1 | 43 nM | – | – | – | – | – | – | 2.5 | – | – | – | – | – | – | -86% |
| COCCOc1ccn2c(-c3cc(NCc4ccc(-c5cnn(C)n5)cc4)ncn3)cnc2c1 | 46 nM | – | – | – | 4 µL/min/1e6 cells | 6.4 ×10⁻⁶ cm/s | 0.8 | 3 | – | – | – | – | – | – | – |
| CN1CCN(CCOc2ccn3c(-c4cncc(NCc5ccc(N6CCCC6)nc5)c4)cnc3c2)CC1 | 290 nM | 10 µL/min/mg | > 75 µL/min/mg | 100 µM (≈ 51.3 µg/mL) | – | – | – | – | – | – | – | – | – | 11 nM | – |
| Cc1nc(-c2ccc(CNc3cc(-c4cnc5cc(OCCN6CCC(=O)N(C)CC6)ccn45)ncn3)cc2)co1 | 54 nM | – | – | – | 6 µL/min/1e6 cells | 7.6 ×10⁻⁶ cm/s | 7.5 | 3.2 | 6.3 | 10 µg/mL (≈ 18.1 µM) | – | – | – | – | -7% |
| c1ccc(-c2ccc(CNc3ccnc(-c4cnc5ccccn45)n3)cc2)cc1 | 340 nM | 10 µL/min/mg | 10 µL/min/mg | < 3 µM | – | – | – | – | – | – | – | – | – | 15 nM | – |
| Cn1cc(-c2ccc(CNc3cc(-c4cnc5cc(OCCN6CCn7nncc7C6)ccn45)ncn3)cc2)cn1 | 76 nM | – | – | – | < 4 µL/min/1e6 cells | 7.6 ×10⁻⁶ cm/s | 18 | 2.8 | 5.8 | 10 µg/mL (≈ 18.3 µM) | – | – | – | – | -8% |
